Measurements from patent US20100160228A1, “METHOD FOR INHIBITING OR STIMULATING ANGIOGENESIS IN AN INDIVIDUAL” (VALTION TEKNILLINEN TUTKIMUSKESKUS, priority 2007, published 2010).

Tests used:
HUVEC [1] = experiment: Fibrin-gel in vitro angiogenesis (capillary tube formation) assay; format: cell-based, human; settings: VEGF, 24 h, FIG. 5A
Method: (§1) FIG. 5. Controlled TCPTP activation inhibits VEGF-driven capillary formation, chemokinesis and chemotaxis. (A) HUVEC were cultured in fibrin gels and treated with or without VEGF and TAT peptides (200 nM). After 24 h the formation of capillary tubes was semiquantitatively scored. (B) HUVEC were plated on gelatin in the presence of the peptides (200 nM) or left untreated for 1 h. The cells were stimulated as indicated and migration of individual cells was tracked using time-lapse microscopy. Cumulative migration distance was plotted for randomly picked individual cells. (C) HUVEC were treated with 200 nM peptides and the transmigration assay was performed as in FIG. 3D. (D) HUVEC were transfected with siRNA against TCPTP or a control siRNA, and TCPTP expression was analysed with immunofluorescence. Equal exposures of TCPTP (green) and DAPI (blue) stainings are shown. 48 h post-transfection cells were subjected to transmigration assay as in […].
Tube formation assays. In the fibrin-gel in vitro angiogenesis assay (Chemicon) HUVEC were plated onto a fibrin-gel, and overlaid with a second fibrin-gel after an overnight culture. […] At the 24 h end-point the formation of cellular networks was quantified from three randomly-selected fields from each well. […] In the collagen overlay assay the number of closed polygons formed by capillary tubes was quantified.

HUVEC [2] = experiment: Transwell chemotaxis assay towards VEGF; format: cell-based, human
Method: FIG. 3. TCPTP activity controls VEGF-dependent responses in endothelial cells. (A) HUVEC were transfected with the constitutively active TCPTP (TC37) or vector control (pCG), stimulated or not with VEGF, and stained for VEGFR2 (red) and nuclei (blue) after fixation and permeabilization. Arrows indicate VEGFR2 vesicles. (B) HUVEC were treated as in (A) and subjected to trypsin digestion on ice. VEGFR2 protected from trypsin (=internalized pool) was detected by immunoblotting. The intensities of VEGFR2 bands were quantified and are expressed relative to pCG-VEGF control. A representative experiment out of 2 with similar results is shown. (C) HUVEC were transfected with no oligo, siRNA against TCPTP or a control siRNA, and TCPTP expression was measured using immunoblotting. Cells were treated with 80 ng/ml VEGF and proliferation of sparse cells plated on gelatin was assayed after 16 h using BrdU-based assay (mean±SD; n=4-6; *, p<0.05). (D) HUVEC were transfected as in (A) and chemotaxis towards VEGF was measured using a Transwell assay for 4 hours. Cells adhering to the bottom of the filter were fixed and stained with crystal violet. Number of migrated cells was counted (mean±SEM, n=3).
as §1
Chemotaxis assays. HUVEC electroporated with the DNA or siRNA or non-transfected HUVEC were treated with 200 nM α1TAT, ScrTAT or left untreated for 1 h. Transwell filters (8 μm pore size, Costar, Cambridge, Mass.) were coated with gelatin and medium (RPMI, 4 mM L-glutamine, 10% FBS) and VEGF (100 ng/ml) were added to the lower chamber. Cells were harvested from the culture plates, and transferred into the Transwell inserts (4×10^5 cells/well) in RPMI with 0.2% soybean trypsin inhibitor. […] The inserts were fixed in 4% paraformaldehyde, cells stained with 0.5% crystal violet and the number of migrated cells was counted using a microscope.

[3] = HUVEC, 48 h post-transfection, FIG. 5D

Sequence: YGRKKRRQRRRWKLGFFKRPLKKKMEK (SEQ ID NO 3) [α1TAT]
- inhibition of capillary tube formation compared to control peptide treated cells (HUVEC [1]): 40%
- inhibition of capillary tube formation compared to non-treated cells (HUVEC [1]): 60%
- effect on VEGF induced chemotaxis of TCPTP siRNA-treated cells (HUVEC [2]; [3]): no inhibitory effects
- effect on VEGF-induced migration of scrambled siRNA treated cells (HUVEC [2]; [3]): effectively inhibited
- inhibition of VEGF-induced chemotaxis of HUVEC (HUVEC [2]; peptide 200 nM, Transwell 4 h, FIG. 5C): inhibited
